The values that follow come from patent publication US20240199555A1, “APPLICATIONS OF BIASED LIGANDS OF THE SEROTONIN 5-HT7 RECEPTOR FOR THE TREATMENT OF PAIN, MULTIPLE SCLEROSIS AND THE CONTROL OF THERMOREGULATION” (Centre National de la Recherche Scientifique, priority 2021, published 2024).

One assay deals with h5-HT7R (Homo sapiens (Human), UniProt P34969). The assay is described as follows: ERK1/2 and c-SRC phosphorylation by western blot in HEK-293 cells stably expressing h5-HT7R. Type of assay: cell-based. The protocol:
(A, B, C, D, E, F) Time course of activation of ERK1/2 after stimulation of HEK-293 cells stably expressing h5-HT7R with various 5-HT7R ligands used at 10 μM. The cells were stimulated for the indicated periods and assayed for detection of phospho ERK1/2 by western blot analysis. […] Representative blots of three independent experiments are illustrated. The histogram on the right of each panel represents the results of densitometric analyses of three independent experiments. Data are means±SEM. * p<0.05; ** p<0.01; *** p<0.001 versus non stimulated cells (NS).
HEK-293 cells stably expressing h5-HT7R were stimulated with increasing concentrations of 5-CT or Serodolin for 7 minutes. Cells were lysed, and western blot analysis was performed. Representative Western blots from three independent experiments were shown in A-C. Quantification was performed by densitometric analyses from three independent experiments. Analyzed data were plotted versus log concentration for each compounds (A; B) or as bar graph (C) on the right panel.
Time course of activation of ERK1/2 after stimulation of HEK-293 cells stably expressing h5-HT7R with JLB060, a 5-HT7R ligand used at 10 μM. The cells were stimulated for the indicated periods and assayed for detection of phospho ERK1/2 by western blot analysis.
(§1) Treated cells were washed twice with cold PBS and lysed on ice for 30 min in lysis buffer containing 50 mM Tris pH 7.5, 150 mM NaCl, 10 mM EDTA, 1% Triton X-100 and the protease inhibitor cocktail. Cell lysates were centrifuged at 10,000×g for 10 min. Supernatant was then solubilized in Laemmli buffer with 0.1% β-mercaptoethanol. Samples were resolved by electrophoresis on 10% SDS-PAGE, and transferred electrophoretically to polyvinylidene fluoride (PVDF) membranes (GE Healthcare Life Sciences). […] membranes were washed in Tris-buffered saline (TBS; pH 7.4) containing 0.1% Tween-20 (TBS-T; 0.1%) and blocked with 5% (w/v) dry milk TBS-T 0.1% for 30 min. […] Blots were probed with anti-arrestin, anti-Phospho-ERK or anti-ERK antibody (1:2000), anti Phospho-SRC, anti SRC antibody, anti-HA or anti-GFP or anti-actin antibodies. Horseradish-peroxidase-conjugated goat anti-rabbit, anti-mouse or anti-rat antibodies (1:33,000) were used as secondary antibodies. Immunoreactive bands were detected using the Dura detection kit. Protein quantification on blots was performed using Quantity One software (Biorad).
as §1, with “12%” for “10%”, “with” for “with anti-arrestin,”, “anti-Phospho-ERK (1:2000)” for “anti-Phospho-ERK”, “anti-GAPDH” for “anti-ERK”, “(1:5000). […]” for “(1:2000), anti Phospho-SRC, anti SRC antibody, anti-HA or anti-GFP or anti-actin antibodies. Horseradish-peroxidase-conjugated goat anti-rabbit, anti-mouse or anti-rat antibodies (1:33,000) were used as secondary antibodies.”
ERK phosphorylation was monitored by western blotting after treatment of cells with 10 μM of ligands at different times ranging from 2 to 60 minutes.

A further assay relates to Sprague-Dawley male rats. The assay is described as follows: Formalin induced inflammatory pain model. It counts as in vivo. Conditions: single s.c., Serodolin 10 mg/kg, MOA51 1 mg/kg, morphine. As for the experimental part: FIG. 18: Effect of a single administration of Serodolin (AIC01) or MOA51 in the formalin test in rats. Effect of a single subcutaneous administration of Serodolin (AIC01) or MOA51 in the formalin test in rats. In this test, Sprague-Dawley male rats received unilateral injection of a 2.5% formalin solution (50 μl) into the plantar aspect of the hindpaw on testing day (i.e. D0). Control group received Vehicle (20% DMSO/5% Tween 80/NaCl). Serodolin was subcutaneously (sc) administrated at 10 mg/kg and MOA51 at 1 mg/kg. Positive control animals were treated with morphine (3 mg/kg, sc). Paw licking time was measured. Results are expressed as mean±s.e.m. Percentage are expressed as decreased as compared to the vehicle-treated group and represented as figure (B). ***: p<0.001 as compared to the vehicle-treated group, Bonferroni's test after significant Two-way Repeated Measures ANOVA. NS: Non-significant.
Sprague-Dawley male rats (n=10 rats per group) received unilateral injection of a 2.5% formalin solution (50 μl) into the plantar aspect of the hindpaw on testing day (i.e. D0). Experience was separated into 4 groups of animals. Formalin animals+vehicle-treated group; […]—Formalin animals+Sponsor's Serodolin (10 mg/kg), s.c.—Formalin animals+Sponsor's MOA51 (1 mg/kg), s.c.—Formalin animals+internal validator-treated group (Morphine at 4 mg/Kg, s.c.). Single subcutaneous administration of the Vehicle and Sponsor's Compound 30 min (or other timing depending on Sponsor's design) before formalin injection on testing day (i.e. D0)/Subcutaneous administration of Morphine 30 min before formalin injection on testing day (i.e. D0). Hindpaw licking time recorded in consecutive 5 minutes periods from 0 to 5 minutes (early phase) and 17 to 27 minutes (late phase) after formalin injection.
We evaluated the effect of Serodolin as well as MOA51 in rats in the formalin test, an acute and tonic pain model based on the use of a chemical stimulus. Subcutaneous injection of formalin into the right hindpaw produces a biphasic painful response of increasing and decreasing intensity for about 30 minutes after the injection. […] Although not significant, Serodolin, MOA51 and morphine have an inhibitory effect (−40%, −35% and −57% respectively) during the early phase.

h5-HT7R, sequence (P34969 1-432): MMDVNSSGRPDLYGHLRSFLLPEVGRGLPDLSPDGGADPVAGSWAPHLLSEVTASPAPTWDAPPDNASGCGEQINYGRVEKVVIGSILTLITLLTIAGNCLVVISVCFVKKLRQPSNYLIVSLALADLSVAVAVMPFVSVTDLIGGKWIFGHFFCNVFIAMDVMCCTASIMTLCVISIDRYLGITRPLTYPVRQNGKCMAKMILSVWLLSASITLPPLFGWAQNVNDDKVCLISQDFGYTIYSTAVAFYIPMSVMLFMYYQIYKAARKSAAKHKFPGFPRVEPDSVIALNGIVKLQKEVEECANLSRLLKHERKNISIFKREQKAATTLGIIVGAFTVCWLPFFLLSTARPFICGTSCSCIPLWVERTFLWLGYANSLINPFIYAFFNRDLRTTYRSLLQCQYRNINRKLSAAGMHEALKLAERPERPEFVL

With `O=c1[nH]c2ccccc2n1CN1CCN(c2ccc(F)cc2)CC1` [Serodolin], at h5-HT7R (10 μM of ligand or increasing concentrations, western blot), the “induction of ERK phosphorylation” value is “concentration-dependent increase of ERK phosphorylation”. Moreover, the “ERK phosphorylation at the maximal effect” value on h5-HT7R (10 μM of ligand, 2 to 60 minutes) is on record as 409±34 % of control. The “phosphorylation of c-SRC kinase at Tyr416” value at h5-HT7R (western blot, 7 minutes) is given as “induced only after activation of 5-HT7R by Serodolin”. Also, in the assay with Sprague-Dawley male rats (0 to 5 minutes, not significant), the “inhibitory effect on paw licking, early phase” value is reported as −40%. Also, the “inhibition of licking, late phase” value in the assay with Sprague-Dawley male rats (17 to 27 minutes) is −80%.
